In the supplement of paper PMC5579334:
± gives the standard deviation of the averaged measurements.

Experiments:
[1] = tested on: YST-1; experiment: % inhibition of CellTiter-Glo viability at highest tested concentration (72 h), relative to DMSO and benzethonium chloride controls; higher = more inhibition
Summary of the method: (§1)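 Viability of MPNST cell lines and primary human Schwann cells was read as CellTiter-Glo ATP luminescence after 72 h at 37 °C, 5% CO2, in 384-well plates seeded with 750–1000 cells per well. Each compound had been preprinted at five concentrations in 10-fold steps. Signals were scaled between vehicle and positive-control wells, duplicates averaged where present, and fitted with four-parameter logistic curves. Drug sensitivity score and relative IC50 (censored at the top concentration) come from those fits, and percent inhibition is taken at the top concentration.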

[2] = tested on: HSC2 (primary human Schwann cells); experiment: as above
Summary of the method: as §1

[3] = tested on: HSC1 (primary human Schwann cells); experiment: as above
Summary of the method: as §1

[4] = tested on: HS-Sch-2; experiment: as above
Summary of the method: as §1

[5] = tested on: STS26T; experiment: as above
Summary of the method: as §1

[6] = tested on: S462; experiment: as above
Summary of the method: as §1

[7] = tested on: S1507-2; experiment: as above
Summary of the method: as §1

[8] = tested on: HS-PSS; experiment: as above
Summary of the method: as §1

[9] = tested on: ST8814; experiment: as above
Summary of the method: as §1

[10] = tested on: HSC2 (primary human Schwann cells); experiment: drug sensitivity score (DSS, CellTox-Green cytotoxicity, 72 h) (DSS (dimensionless)); higher = more cytotoxic; extreme values may be limits of the assay
Summary of the method: (§2)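 MPNST cell lines and primary human Schwann cells were grown for 72 h at 37 °C in 384-well plates containing five 10-fold compound dilutions. CellTox-Green, added before seeding at a final 1:1000 dilution, gave fluorescence from DNA released by disrupted cells, and signals were scaled to vehicle and positive-control wells. Curves were fitted with a four-parameter logistic model. Drug sensitivity score and relative IC50 come from these fits, with IC50 censored at the top concentration.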

[11] = tested on: HSC1 (primary human Schwann cells); experiment: as above
Summary of the method: as §2

[12] = tested on: STS26T; experiment: as above
Summary of the method: as §2

[13] = tested on: S1507-2; experiment: as above
Summary of the method: as §2

[14] = tested on: HS-PSS; experiment: as above
Summary of the method: as §2

[15] = tested on: ST8814; experiment: as above
Summary of the method: as §2

[16] = tested on: YST-1; experiment: drug sensitivity score (DSS, CellTiter-Glo viability, 72 h) (DSS (dimensionless)); higher = more sensitive; extreme values may be limits of the assay
Summary of the method: as §1

[17] = tested on: HSC2 (primary human Schwann cells); experiment: as above
Summary of the method: as §1

[18] = tested on: HSC1 (primary human Schwann cells); experiment: as above
Summary of the method: as §1

[19] = tested on: HS-Sch-2; experiment: as above
Summary of the method: as §1

[20] = tested on: STS26T; experiment: as above
Summary of the method: as §1

[21] = tested on: S462; experiment: as above
Summary of the method: as §1

[22] = tested on: S1507-2; experiment: as above
Summary of the method: as §1

[23] = tested on: HS-PSS; experiment: as above
Summary of the method: as §1

[24] = tested on: ST8814; experiment: as above
Summary of the method: as §1

SMILES | % inhibition [1] | % inhibition [2] | % inhibition [3] | % inhibition [4] | % inhibition [5] | % inhibition [6] | % inhibition [7] | % inhibition [8] | % inhibition [9] | drug sensitivity score [10] | drug sensitivity score [11] | drug sensitivity score [12] | drug sensitivity score [13] | drug sensitivity score [14] | drug sensitivity score [15] | drug sensitivity score [16] | drug sensitivity score [17] | drug sensitivity score [18] | drug sensitivity score [19] | drug sensitivity score [20] | drug sensitivity score [21] | drug sensitivity score [22] | drug sensitivity score [23] | drug sensitivity score [24]
C[C@@H](C(=O)O)c1ccc(-c2ccccc2)c(F)c1 [Tarenflurbil] (max concentration tested 10000 nM) | -2.65% | -6.06% | 1.66% | -4.22% | -0.273% | -5.38 ± 11% | -1.93 ± 0.15% | -1.84% | -0.223% | 0 | 0 | 0 | 0.283 ± 0.4 | 0 | 0 | 0 | 0 | 0 | 0 | 0 | 0 | 0 | 0 | 0
CO[C@@H](C(=O)N1Cc2[nH]nc(NC(=O)c3ccc(N4CCN(C)CC4)cc3)c2C1)c1ccccc1 [Danusertib] (max concentration tested 10000 nM) | 46.4% | 90.9% | 88.1% | 76.3% | 52.5% | 88.7 ± 1.7% | 66.7 ± 10% | 80.7% | 85.7% | 7.05 | 6.43 | 3.88 | 1.16 ± 0.24 | 2.75 | 6.94 | 12.9 | 10.4 | 11.4 | 11.1 | 5.54 | 13.9 ± 0.31 | 8.76 ± 2 | 8.49 | 8.83
NC(=O)c1ccc(I)c([N+](=O)[O-])c1 [Iniparib] (max concentration tested 10000 nM) | -4.35% | 1.97% | -4.93% | 1.26% | 7.72% | 13.9 ± 7.7% | 9.46 ± 1.8% | -1.31% | -1.13% | 0 | 0 | 0.221 | 6.29 ± 8.9 | 0 | 0 | 0 | 0 | 0 | 0 | 0 | 0 | 0 | 0 | 0
